This assay has as its system 362531-283-R-J2-PDC complex spheroid viability. The experiment in a line: Anticancer human tumor 362531-283-R-J2-PDC patient-derived colon adenocarcinoma cell line growth inhibition [RAS]. The following applies: for viability, T/C: stronger effect = lower value. An excerpt:
RAS pathway inhibitors in Combinations in Complex Spheroids
A high-throughput screen of multi-cell type tumor spheroids was designed to identify active combinations of RAS pathway inhibitors and targeted small molecules. Complex spheroids include a stromal component modeled by human endothelial cells (HUVEC) and fibroblasts modeled by human mesenchymal stem cells (MSCs). The concentration ranges selected for each drug and investigational agent were based upon clinically achievable concentrations if the clinical Cmax of the agent was known.
Compounds. The drugs and investigational agents: abemaciclib (NSC768073), cobimetinib (NSC768068), divarasib (GDC6063, NSC841802), docetaxel (NSC628503), GDC-1971 (RLY-1971, NSC841576), gemcitabine (NSC613327), inavolisib (NSC800729), ipatasertib (NSC767898), KB-0742 (NSC834161), MRTX-1133 (NSC836407), osimertinib (NSC779217), RMC-4630 (NSC839698), RMC-6236 (NSC851965), RMC-6291 (NSC852671), Ro-3306 (NSC812927), sapanisertib (NSC764658), SN-38 (NSC673596), staurosporine (NSC755774), SY5609 (NSC837396), and tovorafenib (DAY101, NSC766906), were obtained from the National Cancer Institute (NCI) Developmental Therapeutics Program Chemical Repository. The FDA-approved anticancer drug set is available from the NCI Developmental Therapeutics Program. […] The stock solutions were prepared in dimethyl sulfoxide (DMSO, Sigma-Aldrich, St. Louis, MO, cat. D2650) at 800-fold the tested concentration and stored at -70 degrees C prior to their use. All drugs and investigational agents were tested over a range starting from a high concentration at or near the clinical Cmax and decreasing in half-log increments. If the clinical Cmax for an agent had not been determined, the highest concentration tested was 10 microM.
Cell Culture. All cells were maintained in an incubator at 37 degrees C and 5% CO2 with 95% humidity. The PDC lines were cultured according to standard operating procedures established by the NCI PDMR. All PDCs were thawed and cultured in Matrigel-coated flasks prepared with a working solution of 1X Ham's F-12 nutrient mix, without supplementation (Invitrogen, Waltham, MA, cat. 11765054), 100 U/mL penicillin-streptomycin (Invitrogen, cat. 15140122), and 2.5% Matrigel (Corning Inc., Corning, NY, cat. 354248) for the first three passages. The 362531-283-R-J2-PDC and 782815-120-R-J1-PDC lines were cultured in 6C/Colon 1B media, which includes advanced DMEM/F-12 (Thermo Fisher Scientific, cat. 12634028), 10 mM HEPES (Thermo Fisher Scientific, cat. 15630080), 1X GlutaMAX supplement (Thermo Fisher Scientific, cat. 35050061), 0.1 mg/mL primocin (InvivoGen, San Diego, CA, cat. ant-pm-2), 10% defined fetal bovine serum, heat inactivated (HyClone Laboratories Inc., Logan, UT, cat. SH30070.03HI), 50% L-WRN conditioned media (ATCC, cat. CRL-3276), 1.25 mM N-Acetyl-L-cysteine (Sigma-Aldrich, cat. A9165), 10 mM nicotinamide (Sigma-Aldrich, cat. N0636), 1X B-27 supplement (Thermo Fisher Scientific, cat. 17504044), 1X N-2 supplement (Thermo Fisher Scientific, cat. 17502048), 50 ng/mL human EGF (Thermo Fisher Scientific, cat. PHG0311), and 10 microM Y-27632 dihydrochloride (Tocris Bioscience, cat. 1254). The K12877-001-R-J1-PDC line was cultured in 6I media, which includes all 6C/Colon 1B media plus 10 ng/mL human FGF-10 (PeproTech, cat. 100-26), 1 ng/mL human FGF-2 (PeproTech, cat. 100-18B), 1 µM prostaglandin E2 (Tocris Bioscience, cat. 2296), […] hydrocortisone (Sigma-Aldrich, cat. H4001), and […] bovine insulin (Sigma-Aldrich, cat. I6634). The K86415-001-R-J1-PDC line was cultured in 6D media, which includes all 6C/Colon 1B media components minus the L-WRN conditioned media. The 485176-168-R4-J1-PDC was cultured in PANC media, which includes all 6C/Colon 1B media plus 100 ng/mL human FGF-10 (PeproTech, cat. 100-26), 500 nM SB-431542 (Selleckchem, cat. S1067), and 10 nM gastrin (Tocris Bioscience, cat. 3006). […]

The structures appear in SMILES notation. “And” between values parts separate entries of the source, which are not always exact repeats. Equal entries are not always repeated.

The term viability, T/C denotes the ratio of treated to control. For orientation: IC50 means the midpoint of a concentration-inhibition curve.
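Note: spheroids exposed to the agents for 7 days before readout.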
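Throughout, for viability, T/C: luminescence viability as percent of DMSO vehicle control wells.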

Turning to `CC(=O)OC12COC1CC(O)C1(C)C(=O)C(O)C3=C(C)C(OC(=O)C(O)C(NC(=O)OC(C)(C)C)c4ccccc4)CC(O)(C(OC(=O)c4ccccc4)C21)C3(C)C` (stereo unspecified), the viability, T/C is 101% [middle of 4 runs] (compound 0.0316 µM); 90.8% [middle of 4 runs] (compound 0.1 µM); 32.6% [middle of 4 runs] (compound 0.316 µM); 21.6% [middle of 4 runs] (compound 1 µM); 27.5% [middle of 4 runs] (compound 3.16 µM); 36% [middle of 4 runs] (compound 10 µM). Further, the IC50 (curve of compound) was 226 nM [middle of 4 runs].

For `CC1(O)CCCC1n1c(=O)c(C(F)F)cc2cnc(NC3CCN(S(C)(=O)=O)CC3)nc21` (stereo unspecified), the viability, T/C is 103% (2×) and 94% and 97.4% (compound 0.0316 µM); 104% [middle of 4 runs] (compound 0.1 µM); 89.9% [middle of 4 runs] (compound 0.316 µM); 68.3% [middle of 4 runs] (compound 3.16 µM). Besides, the half-maximal inhibitory concentration (IC50) (curve of compound) was > 10 µM and 9.27 µM and 6.01 µM.

For `CCC(CC)c1cc(NC2CCC(N)C2)n2nccc2n1` (stereo unspecified), the viability, T/C (compound 0.0316 µM) is 106% [middle of 4 runs]; the viability, T/C (compound 0.1 µM) is 94% and 100% and 104% (2×); the viability, T/C (compound 0.316 µM) is 101% [middle of 4 runs]; the viability, T/C (compound 1 µM) is 94.1% [middle of 4 runs]; the viability, T/C (compound 3.16 µM) is 74.8% [middle of 4 runs]; the viability, T/C (compound 10 µM) is 3.99% [middle of 4 runs]. The IC50 (curve of compound) is 4.62 µM [middle of 4 runs].

With `C[C@@H](NC(=O)c1ncnc(N)c1Cl)c1ncc(C(=O)Nc2cc(C(F)(F)F)c(Cl)cn2)s1`, the viability, T/C is 97.4% [middle of 4 runs] (compound 0.0316 µM); 102% [middle of 4 runs] (compound 0.1 µM); 95.7% [middle of 4 runs] (compound 1 µM); 93.9% [middle of 4 runs] (compound 3.16 µM); 75.5% [middle of 4 runs] (compound 10 µM). Further, the IC50 (curve of compound) was more than 10 µM.

For `Cc1nc(N2CCC3(CC2)COC(C)C3N)c(CO)nc1Sc1ccnc(N)c1Cl` (stereo unspecified), the viability, T/C reads like this: (compound 0.0316 µM) 101% [middle of 4 runs]; (compound 0.1 µM) 107% [middle of 4 runs]; (compound 0.316 µM) 100% [middle of 4 runs]; (compound 1 µM) 88.8% [middle of 4 runs]; (compound 3.16 µM) 91.8% [middle of 4 runs]; (compound 10 µM) 80% [middle of 4 runs]. Further, the IC50 (curve of compound) is more than 10 µM.

For `NC1c2ccccc2OC12CCN(c1cnc3c(N4CCCc5ncccc54)n[nH]c3n1)CC2` (stereo unspecified), the viability, T/C is 95.1% [middle of 4 runs] (compound 0.0316 µM); 90% [middle of 4 runs] (compound 0.1 µM); 85.3% [middle of 4 runs] (compound 0.316 µM); 76.1% [middle of 4 runs] (compound 1 µM); 68.5% [middle of 4 runs] (compound 3.16 µM); 49.4% [middle of 4 runs] (compound 10 µM). Also, where the note is “curve of compound”, the IC50 is > 10 µM and 6.07 µM and 8.41 µM.

In the case of `C=CC(=O)Nc1cc(Nc2nccc(-c3cn(C)c4ccccc34)n2)c(OC)cc1N(C)CCN(C)C` + C#Cc1c(F)ccc2cc(O)cc(-c3ncc4c(N5CC6CCC(C5)N6)nc(OCC56CCCN5CC(F)C6)nc4c3F)c12, the half-maximal inhibitory concentration (IC50) (curve of first compound, second compound 0.0316 µM) is 0.526 µM; the IC50 (curve of first compound, second compound 0.1 µM) turned out to be 0.472 µM; the half-inhibitory concentration (IC50) (curve of first compound, second compound 0.316 µM) was 0.158 µM; the 50% inhibitory concentration (IC50) (curve of first compound, second compound 1 µM) amounted to 0.11 µM; the IC50 (curve of first compound, second compound 3.16 µM) amounted to 0.0489 µM; the IC50 (curve of first compound, second compound 10 µM) came to 0.00545 µM. The viability, T/C (second compound 0.0316 µM, first compound 0.00316 µM) was 96.8%; the viability, T/C (second compound 0.0316 µM, first compound 0.01 µM) is 96.6%; the viability, T/C (second compound 0.0316 µM, first compound 0.0316 µM) is 97.7%; the viability, T/C (second compound 0.0316 µM, first compound 0.1 µM) was 89.7%; the viability, T/C (second compound 0.0316 µM, first compound 0.316 µM) was 78.1%; the viability, T/C (second compound 0.0316 µM, first compound 1 µM) was 15.8%. For the same compound, the viability, T/C is 93% (second compound 0.1 µM, first compound 0.00316 µM); 96.6% (second compound 0.1 µM, first compound 0.01 µM); 91.6% (second compound 0.1 µM, first compound 0.0316 µM); 84.8% (second compound 0.1 µM, first compound 0.1 µM); 71.3% (second compound 0.1 µM, first compound 0.316 µM); 12.4% (second compound 0.1 µM, first compound 1 µM). Besides, the viability, T/C was 95.9% (second compound 0.316 µM, first compound 0.00316 µM); 94.4% (second compound 0.316 µM, first compound 0.01 µM); 84.1% (second compound 0.316 µM, first compound 0.0316 µM); 69.8% (second compound 0.316 µM, first compound 0.1 µM); 20.8% (second compound 0.316 µM, first compound 0.316 µM); 14.4% (second compound 0.316 µM, first compound 1 µM). For the same compound, the viability, T/C by setting is: (second compound 1 µM, first compound 0.00316 µM) 80.9%; (second compound 1 µM, first compound 0.01 µM) 78.3%; (second compound 1 µM, first compound 0.0316 µM) 73%; (second compound 1 µM, first compound 0.1 µM) 53.7%; (second compound 1 µM, first compound 0.316 µM) 19.9%; (second compound 1 µM, first compound 1 µM) 14.4%. Moreover, the viability, T/C by setting is: (second compound 3.16 µM, first compound 0.00316 µM) 63.5%; (second compound 3.16 µM, first compound 0.01 µM) 66.4%; (second compound 3.16 µM, first compound 0.0316 µM) 55.7%; (second compound 3.16 µM, first compound 0.1 µM) 38.7%; (second compound 3.16 µM, first compound 0.316 µM) 16.2%; (second compound 3.16 µM, first compound 1 µM) 13.8%. Further, the viability, T/C reads like this: (second compound 10 µM, first compound 0.00316 µM) 57.3%; (second compound 10 µM, first compound 0.01 µM) 41.4%; (second compound 10 µM, first compound 0.0316 µM) 32.5%; (second compound 10 µM, first compound 0.1 µM) 22.5%; (second compound 10 µM, first compound 0.316 µM) 17.1%; (second compound 10 µM, first compound 1 µM) 13.4%.

The values above are taken from PubChem BioAssay AID2060909 (Molecular Pharmacology Branch, DTP, NCI, 2025).
